We go through three compounds from patent US20060292158A1, “Method for the treatment of cancer using a novel pharmaceutical composition containing at least one dolastatin 10 derivative” (priority 2004, published 2006).

Structures can show the parent of a compound that is named as a salt. Where two headings read alike, the source gives them in different places.

The test system of data set [1] is NCI-H460 human large cell lung carcinoma xenograft. Kind of data set: Antitumor activity in NCI-H460 subcutaneous xenograft in athymic nude mice, combination with cisplatin (Example 4). Format: in vivo. To be noted: day 12. On the procedure:
The NCI-H460 human large cell lung carcinoma cell line was purchased from American Type Culture Collection (MD, U.S.A.). The cells were cultured in RPMI-1640 medium (cat. # R8758, lot 12K2310, exp 01/03; lot 82K2497, exp 08/03; Sigma-Aldrich corporation, MO, U.S.A.) supplemented with 10% (v/v) fetal bovine serum (cat. # 047115, lot # 31300124; Roche Diagnostics KK, Tokyo, Japan).
Sixty of 5-week-old male athymic nude mice (BALB/c nu/nu) were purchased from Charles River Japan, Inc. (Yokohama, Japan). All mice were kept for 8 days in the animal facility of Kamakura Research Laboratories of Chugai Pharmaceutical Co., Ltd. before subjection to the experiment.
The title compound was synthesized at Kamakura Research Laboratories of Chugai Pharmaceutical Co., Ltd. CDDP (Randa™, lot # 924150) was obtained from Nippon Kayaku Co., Ltd. (Tokyo, Japan). The title compound was dissolved in dimethyl sulfoxide (DMSO) and diluted into 2.5 % DMSO solution with saline (for Injection; Ohtsuka Pharmaceutical Industry Co., Ltd., Tokushima, Japan) at the date of administration. CDDP was diluted with saline at the date of administration.
The in vivo evaluation procedure for anticancer drugs was based on the methods described by Plowman, et al. (1997) for xenograft models. See, “Anticancer Drug Development Guide: Preclinical Screening, Clinical Trials, and Approval, Teicher B (ed) pp. 101-125, specifically Chap. 6, “Human Tumor Xenograft Models in NCI Drug Development”, hereby incorporated by reference. A single cell suspension of NCI-H460 (5.6×10^6 cells per mouse) was inoculated subcutaneously into the right flank of each mouse. The tumor volume was estimated by using the equation ab^2/2, where a and b represent tumor length and width, respectively. Mice bearing tumors of between 150 and 245 mm^3 were selected on day 7 after tumor inoculation and were randomly divided into 8 groups, consisting of 5 mice each. Mean tumor volume and body weight of the selected mice were 187 mm3 and 24.3 g, respectively. Drug administration was initiated after mice were divided into groups. The title compound (2 mg/kg or 3 mg/kg), CDDP (5 mg/kg or 6.7 mg/kg) and each vehicle were administered intravenously. Tumor volume and body weight of each mouse were measured twice a week. […] Tumor growth inhibition was calculated using the equation (1-ΔT/ΔC)×100, where ΔT represents the difference in tumor volume from the initial treatment date of the treated group and ΔC represents the difference in tumor volume from the initial treatment date of the vehicle group.

Data set [2] has as its system HT-29 human colorectal adenocarcinoma xenograft. Format: in vivo. To be noted: day 31. On the procedure: The HT-29 human colorectal adenocarcinoma cell line was purchased from American Type Culture Collection (Rockville, MD, U.S.A.). The cells were cultured in McCoy's 5a medium (Sigma-Aldrich Corporation, MO, U.S.A.) supplemented with 10% (v/v) fetal bovine serum (Roche Diagnostics KK, Tokyo, Japan).
Sixty of 5-week-old male athymic nude mice (BALB/c nu/nu) were purchased from Charles River Japan, Inc. (Yokohama, Japan). All mice were kept for 9 days in the animal facility of Kamakura Research Laboratories of Chugai Pharmaceutical Co., Ltd. before subjection to the experiment.
Capecitabine was dissolved by the 40 milli mol/L citrate buffered-5% Gum arabic solution (pH 6.0; Chugai Pharmaceutical Co., Ltd.).
The in vivo evaluation procedure for anticancer drugs was based on the methods described by Plowman, et al. (1997) for xenograft models. See, “Anticancer Drug Development Guide: Preclinical Screening, Clinical Trials, and Approval, Teicher B (ed) pp. 101-125, specifically Chap. 6, “Human Tumor Xenograft Models in NCI Drug Development”, hereby incorporated by reference. A single cell suspension of HT-29 (1.1×10^7 cells per mouse) was inoculated subcutaneously into the right flank of each mouse. The tumor volume was estimated by using the equation ab^2/2, where a and b represent tumor length and width, respectively. Mice bearing tumors of between 172 and 282 mm^3 were selected on day 10 after tumor inoculation and were randomly divided into 7 groups, consisting of 6 mice each. Mean tumor volume and body weight of the selected mice were 217 mm^3 and 25.0 g respectively. Drug administration was initiated after mice were divided into groups. […] Capecitabine (359 mg/kg or 539 mg/kg) and its vehicle were administered orally. Tumor volume and body weight of each mouse were measured twice a week. […] Tumor growth inhibition was calculated using the equation (1-ΔT/ΔC)×100, where ΔT represents the difference in tumor volume from the initial treatment date of the treated group and ΔC represents the difference in tumor volume from the initial treatment date of the vehicle group.

Data set [3] can be described thus: Maximum tolerated dose (neither lethality nor more than 20% body weight loss) in mice. The following applies: BALB/c nu/nu (athymic nude), mouse, in vivo, dose with neither lethality nor more than 20% body weight loss; for MTD at 14 days: oral. The text has this:
The in vivo evaluation procedure for anticancer drugs was based on the methods described by Plowman, et al. (1997) for xenograft models. See, “Anticancer Drug Development Guide: Preclinical Screening, Clinical Trials, and Approval, Teicher B (ed) pp. 101-125, specifically Chap. 6, “Human Tumor Xenograft Models in NCI Drug Development”, hereby incorporated by reference.
See, “Anticancer Drug Development Guide: Preclinical Screening, Clinical Trials, and Approval, Teicher B (ed) pp. 101-125, specifically Chap. 6, “Human Tumor Xenograft Models in NCI Drug Development”, hereby incorporated by reference.
The in vivo evaluation procedure for anticancer drugs was based on the methods described by Plowman, et al. (1997) for xenograft models. See, “Anticancer Drug Development Guide: Preclinical Screening, Clinical Trials, and Approval, Teicher B (ed) pp. 101-125, specifically Chap.

Data set [4] has as its system Calu-6 human lung cancer xenograft. In kind it is in vivo. The following applies: 80 mg/kg (2/3 MTD) i.v. weekly x2; day 32. On the procedure:
The Calu-6 human lung carcinoma cell line was purchased from American Type Culture Collection (MD, U.S.A.). The cells were cultured in Eagle's MEM (Sigma-Aldrich corporation, MO, U.S.A.) supplemented with 0.1 milli mol/L Non-essential amino acids (Invitrogen corporation, CA, U.S.A.), 1 milli mol/L sodium pyruvate (Invitrogen corporation, CA, U.S.A.), and 10% (v/v) fetal bovine serum (Roche Diagnostics KK, Tokyo, Japan).
60 of 5-week-old male athymic nude mice (BALB/c nu/nu) were purchased from Charles River Japan, Inc. (Yokohama, Japan). All mice were kept for 8 days in the animal facility of Kamakura Research Laboratories of Chugai Pharmaceutical Co., Ltd. before subjection to the experiment.
The title compound was synthesized at Kamakura Research Laboratories of Chugai Pharmaceutical Co., Ltd. Irinotecan (Topotecin™, lot. No. EQAZF13) was obtained from Daiichi Pharmaceutical Co., Ltd. (Tokyo, Japan). The title compound was dissolved in dimethyl sulfoxide (DMSO) and diluted into 2.5 % DMSO solution with saline (For Injection; Ohtsuka Pharmaceutical Industry Co., Ltd., Tokushima, Japan) at the date of administration. Irinotecan was diluted with saline at the date of administration.
The in vivo evaluation procedure for anticancer drugs was based on the methods described by Plowman, et al. (1997) for xenograft models. See, “Anticancer Drug Development Guide: Preclinical Screening, Clinical Trials, and Approval, Teicher B (ed) pp. 101-125, specifically Chap. 6, “Human Tumor Xenograft Models in NCI Drug Development”, hereby incorporated by reference. A single cell suspension of Calu-6 (5.7×10^6 cells per mouse) was inoculated subcutaneously into the right flank of each mouse. The tumor volume was estimated by using the equation ab^2/2, where a and b represent tumor length and width, respectively. Mice bearing tumors of between 181 and 326 mm^3 were selected on day 11 after tumor inoculation and were randomly divided into 10 groups, consisting of 5 mice each. […] Drug administration was initiated after mice were randomized and divided into groups. The tide compound (0.375 mg/kg; 0.75 mg/kg; 1.5 mg/kg or 3 mg/kg), irinotecan (80 mg/kg) and each vehicles were administered intravenously. Tumor volume and body weight of each mouse were measured twice a week. […] Tumor growth inhibition was calculated by using the equation (1-ΔT/ΔC)×100, where ΔT represents the tumor volume difference from the initial treatment date of treated group and ΔC represents the tumor volume difference from the initial treatment date of vehicle group.

For the compound `N.N.[Cl][Pt][Cl]` [CDDP, cis-diamminedichloroplatinum, reference compound], the “reduction of tumor growth” value is 56% in data set [1] (5 mg/kg (1/2 MTD) i.v. on first day) and 66% in data set [1] (6.7 mg/kg (2/3 MTD) i.v. on first day).
On to `CCCCCOC(=O)Nc1nc(=O)n([C@@H]2O[C@H](C)[C@@H](O)[C@H]2O)cc1F` [capecitabine, reference compound], for which the results for the “reduction of tumor growth” value in data set [2] (359 mg/kg (2/3 MTD) p.o. daily for 14 days) and in data set [2] (539 mg/kg (MTD) p.o. daily for 14 days) were 32% and 50%, respectively. Also, the MTD at 14 days turned out to be 359 mg/kg in data set [3] (359 mg/kg) and 539 mg/kg in data set [3].
Compound `CCc1c2c(nc3ccc(OC(=O)N4CCC(N5CCCCC5)CC4)cc13)-c1cc3c(c(=O)n1C2)COC(=O)[C@]3(O)CC` [irinotecan, irinotecan hydrochloride, reference compound] gave a tumor growth inhibition in data set [4] of 68%. Moreover, the MTD in data set [3] worked out at 120 mg/kg.
